Laboratory results as given in US8410287B2 (McNeil-PPC, Inc., priority 2010, dated 2013).

Experiments:
[1] = stability toward air: neutralization of the salt by CO2 and water to neutral Cel (Cel-III); assay type: physicochemical
From the text: The behavior was first observed when using compressed air instead of nitrogen in the dynamic vapor sorption experiment, but it was also clear in samples stored open in controlled humidity chambers. The neutralization was minimized to get clean PXRD patterns by including small vials of concentrated NaOH solution within the closed humidity chambers to remove CO2 from the air. […] Throughout the conversion, both Cel-III and the sodium salt are clearly observed by PXRD with Cel-III growing slowly over time.

[2] = storage in controlled humidity chambers monitored by PXRD (physical form stability); assay type: physicochemical
From the text: Indeed, understanding the behavior of the salt form before the single crystal structure was solved was challenging in that the powder patterns seemed to change almost daily, even when powders were equilibrated in humidity chambers prior to measurement. […] Consistent powder patterns were obtained by two distinct methods. In the first method, powder was filled into 0.5 mm capillary tubes, equilibrated in controlled humidity chambers for 1 week, sealed with silicone grease immediately upon removal from the humidity chambers, and measured immediately with a transmission powder X-ray diffractometer. In the second, a sample was monitored by a reflectance mode powder X-ray diffractometer fitted with a controlled humidity stage. The two methods were complimentary. The capillary method provided high resolution patterns without preferred orientation effects. However, the humidity control was coarse and was limited to conditions that could be achieved with standard saturated salt solutions.
The rate of conversion to Cel-NaPG(H2O)3 is very slow at 18% RH and increases to the point where conversion takes less than one day at 54% RH or higher.

[3] = Dynamic Vapor Sorption (DVS) moisture sorption analysis; assay type: physicochemical
Description: Moisture sorption analysis was performed using a Dynamic Vapor Sorption apparatus (Surface Measurement Systems, Monarch Beach, Calif.). Each sample was placed in a clean glass crucible and equilibrated in the apparatus at a specified RH level. Varying the flow rates of dry nitrogen gas and saturated wet nitrogen gas streams controlled RH; the total combined flow rate was kept constant at 200 standard […] per minute. After initial equilibration, RH was varied and change in mass was recorded over time as an indication of moisture sorption. Mass equilibration at each humidity level was determined as a change in mass less than ±2×10^−5 grams over a time interval of 1 minute (dm/dt of 0.002% min). After the assay, the change in mass was mathematically converted to water molar equivalents per dry compound molar equivalent.
The dynamic vapor sorption profiles were measured starting with Cel-NaPG at 0% RH, and for Cel-NaPG(H2O)3 beginning at 20% RH to avoid dehydrating it prior to the first absorption cycle. The profiles are shown in FIG. 12 alongside PXRD patterns for samples of Cel-NaPG stored in controlled humidity chambers for 1-2 days.

TGA = assay type: physicochemical
[4] = 1H NMR determination of Cel:PG ratio after exposure to 0% RH and 40% RH in the DVS; assay type: physicochemical
Description: ^1H NMR measurements were conducted using a Varian 400 MHz spectrometer with averaging of 128 scans. Samples were prepared as 10 mg/ml solutions of Cel in CDCl3.
Increased lability and loss of PG during the transition from anhydrous to trihydrate was believed to be the most likely explanation for the weight loss. ^1H NMR was used to determine whether the PG solvate is lost continuously throughout the humidity cycle or only during change in the hydration state. Cel-NaPG and Cel-NaPG(H2O)3 were exposed to 0% RH and 40% RH in the DVS and then dissolved in methanol-d4 for NMR analysis. The Cel:PG ratio was stable at 1/1 for Cel-NaPG(H2O)3 after treatment for either four hours at 40% RH or 18 hours at 0% RH. […] Since the Cel-NaPG(H2O)3 has a wide range of physical stability, conversion from the trihydrate to the anhydrous and then back to the trihydrate should be a rare event. In a closed system such as a packaged tablet, PG should not be lost as easily as it is in the dynamic environment of the DVS where gases continuously flow over the sample to carry away any volatile components.

physchem = details: aqueous sodium hydroxide solution, pH 12, aqueous buffer
[5] = cited from earlier work

Cc1ccc(-c2cc(C(F)(F)F)nn2-c2ccc(S(N)(=O)=O)cc2)cc1 [Cel-Na(H2O)x]
physical stability in a sealed vial ([1]; sealed vial): physically stable

CC(O)CO.Cc1ccc(-c2cc(C(F)(F)F)nn2-c2ccc(S([NH-])(=O)=O)cc2)cc1.O.O.O.[Na+] [Cel-NaPG(H2O)3, propylene glycol solvate of celecoxib sodium trihydrate]
conversion to Cel-NaPG (dehydration) ([2]; 4 days of storage over the 18% RH salt bath): no conversion to Cel-NaPG
reversible weight gain ([3]; between 10 and 70% RH at 25° C.): 1.2 % weight
loss of dry weight after a single humidity cycle ([3]; started at 20% RH, single humidity cycle): no loss was seen
reaction with CO2 and water in the air [1]: resistant to reaction with CO2 and water in the air
conversion to neutral Cel ([1]; after 4 days at 45 66% RH): no conversion was observed

CC(O)CO.Cc1ccc(-c2cc(C(F)(F)F)nn2-c2ccc(S([NH-])(=O)=O)cc2)cc1.[Na+] [Cel-NaPG]
time for conversion to Cel-NaPG(H2O)3 ([2]; 54% RH or higher): less than one
additional weight loss after going through the entire DVS profile ([3]; 25° C., after desorption): 2 % weight
weight gain during adsorption ([3]; DVS profile started at 0% RH, 25° C.): ~14 % weight
temperature until which PG is retained (TGA) (TGA; under a flow of nitrogen): approximately 80 °C
water gained (TGA) (TGA; within 1 day, stored in a 38% RH chamber): about 2 equiv
PG lost ([4]; over four hours at 40% RH): 8.2%
stability of PG content ([4]; stream of dry nitrogen for 18 hours (0% RH)): remaining stable

Cc1ccc(-c2cc(C(F)(F)F)nn2-c2ccc(S(N)(=O)=O)cc2)cc1 [celecoxib]
solubility (physchem): ≥ 380 mg/mL
aqueous solubility of celecoxib at physiological pH [5]: < 0.5 μg/ml
